Laboratory results from US20230242473A1, “THYROMIMETICS” (Autobahn Therapeutics, Inc., priority 2020, published 2023).

target: T1, recombinant human FAAH (rhFAAH) (Homo sapiens, UniProt O00519); experiment: FAAH substrate evaluation (formation of acid metabolite, LC-MS/MS); format: in vitro ADME; settings: 0.5 ng/μL rhFAAH, 1 μM test compound, pH 8.0, room temperature, 0-60 minutes
T1 construct: purchased Cayman Chemical (Ann Arbor, Mich., USA)
T1 sequence (O00519 1-579): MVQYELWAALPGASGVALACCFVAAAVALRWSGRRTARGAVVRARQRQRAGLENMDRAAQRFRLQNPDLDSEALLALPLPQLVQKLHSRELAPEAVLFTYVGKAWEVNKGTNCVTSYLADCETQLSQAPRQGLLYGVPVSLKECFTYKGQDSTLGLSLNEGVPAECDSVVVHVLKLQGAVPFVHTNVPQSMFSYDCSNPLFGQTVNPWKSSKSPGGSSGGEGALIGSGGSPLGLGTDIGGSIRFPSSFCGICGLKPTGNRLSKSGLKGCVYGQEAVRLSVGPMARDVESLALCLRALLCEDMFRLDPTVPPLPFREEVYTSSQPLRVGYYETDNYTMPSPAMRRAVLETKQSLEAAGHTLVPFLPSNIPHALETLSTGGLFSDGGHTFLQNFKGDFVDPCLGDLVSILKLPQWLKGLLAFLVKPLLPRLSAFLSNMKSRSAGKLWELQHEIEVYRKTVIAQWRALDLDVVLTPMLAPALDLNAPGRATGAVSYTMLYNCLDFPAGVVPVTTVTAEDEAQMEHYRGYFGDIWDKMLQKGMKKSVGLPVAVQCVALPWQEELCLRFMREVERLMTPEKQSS
Description: Purified recombinant human FAAH (rhFAAH) was purchased from Cayman Chemical (Ann Arbor, Mich., USA). The total volume for each incubation was 400 μL containing a final 0.5 ng/μL rhFAAH, 1 μM test compound, 1.25% ethanol or 1 μM PF-3845 (FAAH inhibitor), and 0.1% bovine serum albumin in Tris-EDTA buffer at pH 8.0). The positive control was LL-341001. The incubation was conducted at the room temperature. At 0, 5, 15, 30 and 60 minutes, an aliquot of 30 μL reaction mixtures was removed and mixed with 300 μL acetonitrile containing 5 ng/mL terfenadine and 10 ng/mL tolbutamide as internal standards to quench the reaction. The resulting mixture was centrifuged at 4000 rpm, 4° C. for 15 minutes, and 100 μL supernatant was ready for LC-MS/MS analysis to measure the formation of acid metabolite.
Acquity Ultra Performance LC system from Waters was used for sample analysis. The chromatography was performed on a reverse phase Kinetex 2.6 μm C18 column, 2.1×30 mm, 100 Å. The mobile phase A comprised of 0.10% formic acid in water and mobile phase B comprised of 0.1% formic acid in acetonitrile with a 2-min run time at the flow rate of 0.8 mL/min for the acid metabolite from positive control or a 1.5 min run time at the flow rate of 0.9 mL/min for the acid metabolite of test compounds. The mass spectrometer (API-5500 and API Q Trap 4000 Applied Biosystems/MDS SCIEX Instruments, Framingham, Mass., USA) was operated under ESI positive or negative ion MRM mode.
The formation of acid metabolite was monitored and quantified using one calibration point of 1 μM. The observed rate constant (ke) for the acid metabolite formation was calculated by plotting the metabolite concentration versus time of incubation with the slope being ke and is shown in Table 4.

| SMILES | ke, observed rate constant for the acid metabolite formation |
| --- | --- |
| CNC(=O)COc1cc(C)c(Cc2ccc(O)c(C(C)C)c2F)c2c1CCC2 [Compound 11, 2-((7-(2-fluoro-4-hydroxy-3-isopropylbenzyl)-6-methyl-2,3-dihydro-1H-inden-4-yl)oxy)-N-methylacetamide] | A (A = ke is less than 2.0 and more than or equal to 0.05) |
| CNC(=O)COc1ccc(Cc2ccc(O)c(C(C)C)c2F)c(C(C)C)c1 [Compound 43, 2-(4-(2-fluoro-4-hydroxy-3-isopropylbenzyl)-3-isopropylphenoxy)-N-methylacetamide] | A (A = ke is less than 2.0 and more than or equal to 0.05) |
| CC(C)c1cc(Cc2cc(F)c(OCC(=O)N(C)C)cc2C(C)C)ccc1O [Compound 48, 2-(2-fluoro-4-(4-hydroxy-3-isopropylbenzyl)-5-isopropylphenoxy)-N,N-dimethylacetamide] | A (A = ke is less than 2.0 and more than or equal to 0.05) |
| C=C(C)c1cc(OCC(=O)NC)ccc1Cc1ccc(O)c(C(C)C)c1F [Compound 41, 2-(4-(2-fluoro-4-hydroxy-3-isopropylbenzyl)-3-(prop-1-en-2-yl)phenoxy)-N-methylacetamide] | A (A = ke is less than 2.0 and more than or equal to 0.05) |
| CNC(=O)COc1cc(C(C)C)c(Cc2ccc(O)c(C(C)C)c2)cc1F [Compound 47, 2-(2-fluoro-4-(4-hydroxy-3-isopropylbenzyl)-5-isopropylphenoxy)-N-methylacetamide] | A (A = ke is less than 2.0 and more than or equal to 0.05) |
| CNC(=O)COc1cc(Cl)c(Cc2ccc(O)c(C(C)C)c2F)cc1F [Compound 39, 2-(5-chloro-2-fluoro-4-(2-fluoro-4-hydroxy-3-isopropylbenzyl)phenoxy)-N-methylacetamide] | A (A = ke is less than 2.0 and more than or equal to 0.05) |
